{"source": "patent EP0497258B1", "about": "“Use of adenosine antagonists in the prevention and treatment of pancreatitis and ulcer” (FUJISAWA PHARMACEUTICAL CO., LTD., priority 1991, dated 1992)", "format_in_all_cases": "in vivo, Sprague-Dawley rats", "key": {"[1]": {"tested_on": "CHA(N^6-cyclohexyladenosine)-induced pancreatitis", "assay": "Effect on CHA-induced pancreatitis (serum amylase)", "conditions": "10 mg/kg orally 30 minutes before CHA; for inhibition %: inhibition of CHA-induced serum amylase increase; for serum amylase (10^3 IU/ℓ): male rats, CHA 3.2 mg/kg orally, blood after 24 hours, Normal 4.1 ± 0.2, Control 28.3 ± 10.0", "protocol": "Male Sprague-Dawley rats, weighing 245-260 g, were deprived of food but allowed free access to water for 24 hours CHA was given orally at a dose of 3.2 mg/kg. After 24 hours, animals were killed and blood samples were collected. Subsequently, the blood serum was prepared and amylase concentration was determined. The test compounds (1) to (5) (10 mg/kg) or vehicle (to control group) was given orally 30 minutes before CHA administration. In Normal group, vehicle was given instead of CHA."}, "[2]": {"tested_on": "CHA(N^6-cyclohexyladenosine)-induced gastric ulcer", "assay": "Effect on CHA-induced gastric ulcer", "conditions": "10 mg/kg orally 30 minutes before CHA; for inhibition %: inhibition of ulcer index vs Control; for ulcer index (mm^2): male rats, CHA 1 mg/kg subcutaneously, stomachs examined after 7 hours, Control 65.0 ± 18.4", "protocol": "Male Sprague-Dawley rats, weighing 225-259 g, were deprived of food but allowed free access to water for 24 hours. CHA was given subcutaneously at a dose of 1 mg/kg. After 7 hours, animals were killed and stomachs were removed. Subsequently, the stomachs were inflated by injecting 12 ml of 2% formalin to fix the inner layer of gastric walls. Ten minutes later, they were incised along the greater curvature and examined for lesions. Test Compounds (1) to (5) (10 mg/kg) or vehicle (to control group) was given orally 30 minutes before CHA administration."}, "[3]": {"tested_on": "ischemia induced gastric ulcer", "assay": "Effect on ischemia induced gastric ulcer (left gastric artery ligation)", "protocol": "Male Sprague-Dawley rats (9 or 10 rats for one group) weighing 230 to 270 g were fasted for 24 hours but allowed free access to water ad libitum.\nUnder ether anesthesia, the abdomen was incised and the left gastric artery was ligated. After closing the abdomen, animals were maintained an regular feed with water ad libitum. The test compound (1) (10 mg/kg/5 ml) for the test group or vehicle (0.1 % methyl cellulose, 5 ml/kg) for the control group was given orally twice a day (9:00 a.m. and 5:00 p.m.) from the first day after the operation for 3 consecutive days. On the fourth day after the operation, the test compound (for the test group) or vehicle (for the control group) was given at 9:00 a.m. and animals were killed at.5:00 p.m.. The stomach was examined for ulcers.\nUlcer index was expressed as lesion area (mean ± standard error)."}, "[4]": {"tested_on": "serum amylase increment induced by caerulein administration with water immersion restraint stress", "assay": "Effect on serum amylase increment induced by caerulein administration with water immersion restraint stress", "conditions": "male rats, caerulein 50 µg/kg s.c. + water immersion restraint at 23°C for 7 hours; 1 mg/kg orally 30 minutes before caerulein; mean ± standard error; control group 22.5 ± 3.3", "protocol": "Male Sprague-Dawley rats (6 rats for one group) weighing 210 to 240 g were fasted for 24 hours but allowed free access to water ad libitum. Immediately after caerulein administration (50 µg/kg/2 ml s.c.), rats were placed in restraint cages and immersed in water at 23°C for 7 hours. The animals were killed and blood sample was collected from femoral blood vessels. Serum amylase was measured using Neo-Amylase Test \"DAIICHI\" (trademark, prepared by DAIICHI KAGAKU YAKUHIN). The test compound (1) (1 mg/kg/5 ml) for the test group or vehicle (0.1 % methyl cellulose, 5 ml/kg) for the control group was given orally 30 minutes before caerulein administration.\nSerum amylase concentration was expressed as mean ± standard error."}}}
{"smiles": "O=C(O)C[C@H]1CCCCN1C(=O)C=Cc1c(-c2ccccc2)nn2ccccc12", "note": "[Test Compound (3), (2R)-1-[3-(2-Phenylpyrazolo[1,5-a]pyridin-3-yl)acryloyl]-2-(carboxymethyl)piperidine]", "values": [{"measurement": "inhibition %", "setting": "[1]", "value": 92.6, "unit": "%"}, {"measurement": "serum amylase (10^3 IU/ℓ)", "setting": "[1]", "value": "5.9 ± 1.0 10^3 IU/ℓ"}, {"measurement": "inhibition %", "setting": "[2]", "value": 99.8, "unit": "%"}, {"measurement": "ulcer index (mm^2)", "setting": "[2]", "value": "0.1 ± 0.1", "unit": "mm^2"}]}
{"smiles": "O=C(C=Cc1c(-c2ccccc2)nn2ccccc12)N1CCCC[C@@H]1CCO", "note": "[Test Compound (1), (2R)-1-[3-(2-Phenylpyrazolo[1,5-a]pyridin-3-yl)acryloyl]-2-(2-hydroxyethyl)piperidine]", "values": [{"measurement": "inhibition %", "setting": "[3]; inhibition of ulcer index vs control group, 10 mg/kg orally twice a day", "value": 45.8, "unit": "%"}, {"measurement": "ulcer index (mm^2)", "setting": "[3]; male rats, left gastric artery ligated, 10 mg/kg orally twice a day from first day after operation, killed on fourth day, lesion area, mean ± standard error, control group 26.2 ± 6.0", "value": "14.2 ± 4.0", "unit": "mm^2"}, {"measurement": "serum amylase (10^3 IU/L)", "setting": "[4]", "value": "13.8 ± 1.0 10^3 IU/L"}, {"measurement": "inhibition %", "setting": "[1]", "value": 69.4, "unit": "%"}, {"measurement": "serum amylase (10^3 IU/ℓ)", "setting": "[1]", "value": "11.5 ± 5.8 10^3 IU/ℓ"}, {"measurement": "inhibition %", "setting": "[2]", "value": 99.4, "unit": "%"}, {"measurement": "ulcer index (mm^2)", "setting": "[2]", "value": "0.4 ± 0.4", "unit": "mm^2"}]}
{"smiles": "O=C(O)CCCn1nc(-c2c(-c3ccccc3)nn3ccccc23)ccc1=O", "note": "[Test Compound (2), 3-[2-(3-Carboxypropyl)-3-oxo-2,3-dihydropyridazin-6 yl]-2-phenylpyrazolo[1,5-a]pyridine]", "values": [{"measurement": "inhibition %", "setting": "[1]", "value": 99.6, "unit": "%"}, {"measurement": "serum amylase (10^3 IU/ℓ)", "setting": "[1]", "value": "4.2 ± 0.3 10^3 IU/ℓ"}, {"measurement": "inhibition %", "setting": "[2]", "value": 97.1, "unit": "%"}, {"measurement": "ulcer index (mm^2)", "setting": "[2]", "value": "1.9 ± 1.9", "unit": "mm^2"}]}
